These results are taken from ChEMBL document CHEMBL6134920, “Novel Heterocyclic Pyrimidine Derivatives as GSK3α Inhibitors” (ACS Med Chem Lett, 2025).

What is called IC50 is the concentration that inhibits the measured activity by half. The low end stands for greater potency in that assay, the high end for weaker potency in that assay.

The nature of the experiment: Inhibition of Nanoluc-GSK2alpha (unknown origin) expressed in HEK293 cells measured after overnight incubation by NanoBRET- cellular assay. The conditions noted are these: Homo sapiens. In general terms: In BRET a luciferase serves as donor, and the signal depends on an acceptor being close.

Compound `COCc1cc(Cl)c(-n2cnc(N)c(C(=O)Nc3cncc(C(N)COC)c3)c2=O)c(Cl)c1` (stereo unspecified) came in with a concentration for half-maximal inhibition (IC50) of 2.4 nM.

In turn, `COCC(N)c1cncc(NC(=O)c2c(N)ncn(-c3c(Cl)cc(OC4CC4)cc3Cl)c2=O)c1` (stereo unspecified) registered an IC50 of 2.4 nM.

Consider `COCC(N)c1cncc(NC(=O)c2c(N)ncn(-c3c(Cl)cc(C(F)F)cc3Cl)c2=O)c1` (stereo unspecified), for which the concentration for half-maximal inhibition (IC50) worked out at 2.8 nM. The IC50 values of the last two compounds are within 1.5-fold of each other.

Consider `Nc1ncn(-c2c(Cl)cc(C(F)CF)cc2Cl)c(=O)c1C(=O)Nc1cncc([C@H]2CCCCN2)c1` (stereo partly specified), for which half-maximal inhibition (IC50) was put at 2 nM.

The compound `CNC(COC)c1cncc(NC(=O)c2c(N)ncn(-c3c(Cl)cc(COC)cc3Cl)c2=O)c1` (stereo unspecified) displayed an IC50 of 1.9 nM.

In turn, `CCNCc1cncc(NC(=O)c2c(N)ncn(-c3c(Cl)cc(OCC)cc3Cl)c2=O)c1` gave an IC50 of 4.8 nM.
